EC50 and CC50 data for 9 compounds are collected here from patent US5696151A, “Compounds useful for the inhibition of the replication of HIV-1 and HIV-1 mutants” (priority 1995, dated 1997).

Holding throughout (format): cell-based
The subject of one data set is HIV-1/188-Leu. Briefly: Inhibition of HIV-1 induced syncytium formation in CEM cells, RT mutant 188-Leu. To be noted: Human immunodeficiency virus 1, CCRF-CEM, 96 h, Table 2B, day 4, averages of 2 to 3 independent experiments, read-out: Antiviral Activity of Comparative Compounds EC50, 188-Leu. From the text: (§1) CEM cells were obtained from the American Tissue Cell Culture Collection (Rockville, Md.). HIV-1(IIIB) was originally obtained from the culture supernatant of persistently HIV-1-infected H9 cells and was provided by R. C. Gallo and M. Popovic (National Cancer Institute, National Institutes of Health, Bethesda, Md.). […] 67: 5353-5359 (1993); HIV-1/Lys-138 ("Lys-138") was selected for resistance against TSAO-m^3T as described in Balzarini et al, Virology 192: 246-253 (1993) and Balzarini et al, Proc. Nat. Acad. Sci. USA 90: 6952-6956 (1993); HIV-1/181-Cys ("181-Cys") was selected for resistance against pyridinone L-697,661 as described in Balzarini et al, Virology 192: 246-253 (1993); and HIV-1/188-His ("188-His") was selected for resistance against HEPT as described in Balzarini et al, Mol. Pharmocol. 44: 694-701 (1993). 188-His was then further converted to HIV-1/188-Leu "188-Leu") upon further passage in cell culture in the absence of the HEPT.
(§2) CEM cells were suspended at ≈300,000 cells per ml of culture medium and infected with approximately 100 CCID50 (CCID50 being the 50% cell culture infective dose) of HIV-1(IIIB) or one of the HIV-1 RT mutant strains described above. Then 100 μl of the infected cell suspensions was added to 200 μl microtiter plate wells containing 100 μl of appropriate serial (5-fold) dilutions of the test compounds. The inhibitory effect of the test compounds on HIV-1 induced syncytium formation in CEM cells was examined microscopically on day 4 post infection.

The next data set in a line: in vitro. As to conditions: human, cem cells, CC50 (50% cytostatic concentration), Table 2B; CEM cell proliferation; averages of 2 to 3 independent experiments. An outline of the steps:
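Value is the 50% cytostatic concentration, the compound concentration that inhibits CEM cell proliferation by 50%. HIV-1(IIIB) and NNRTI-resistant variants selected in culture (Lys-138, 181-Cys, 188-His, 188-Leu) were used alongside.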

The subject of the next data set is HIV-1/106-Ala. Briefly: Inhibition of HIV-1 induced syncytium formation in CEM cells, RT mutant 106-Ala. As to conditions: Human immunodeficiency virus 1, CCRF-CEM, 96 h, Table 2B, day 4, averages of 2 to 3 independent experiments, read-out: Antiviral Activity of Comparative Compounds EC50, 106-Ala. In outline: (§3)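 CEM cells (≈300,000 cells/ml) were infected with about 100 CCID50 of HIV-1(IIIB) or an RT mutant strain and added to 5-fold serial dilutions of test compound. Inhibition of HIV-1-induced syncytium formation was scored microscopically on day 4 post infection.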

The next data set deals with HIV-1/100-Ile. As to the kind of experiment: Inhibition of HIV-1 induced syncytium formation in CEM cells, RT mutant 100-Ile. As to conditions: Human immunodeficiency virus 1, CCRF-CEM, 96 h, Table 2B, day 4, averages of 2 to 3 independent experiments, read-out: Antiviral Activity of Comparative Compounds EC50, 100-Ile. In outline: as §3
In the next data set the test system is HIV-1/Lys-138. As to the kind of experiment: Inhibition of HIV-1 induced syncytium formation in CEM cells, RT mutant 138-Lys. To be noted: Human immunodeficiency virus 1, CCRF-CEM, 96 h, Table 2B, day 4, averages of 2 to 3 independent experiments, read-out: Antiviral Activity of Comparative Compounds EC50, 138-Lys. In outline: as §3
A further data set deals with HIV-1(IIIB). As to the kind of experiment: Inhibition of HIV-1 induced syncytium formation in CEM cells, wild type. To be noted: Human immunodeficiency virus 1, IIIB, CCRF-CEM, 96 h, Table 2B, WT = HIV-1(IIIB), day 4, averages of 2 to 3 independent experiments, read-out: Antiviral Activity of Comparative Compounds EC50, WT. An outline of the steps:
as §3

The next data set relates to HIV-1/181-Cys. Briefly: Inhibition of HIV-1 induced syncytium formation in CEM cells, RT mutant 181-Cys. As to conditions: Human immunodeficiency virus 1, CCRF-CEM, 96 h, Table 2B, day 4, averages of 2 to 3 independent experiments, read-out: Antiviral Activity of Comparative Compounds EC50, 181-Cys. In outline: as §3
In another data set the test system is HIV-1/103-Asn. Briefly: Inhibition of HIV-1 induced syncytium formation in CEM cells, RT mutant 103-Asn. As to conditions: Human immunodeficiency virus 1, CCRF-CEM, 96 h, Table 2B, day 4, averages of 2 to 3 independent experiments, read-out: Antiviral Activity of Comparative Compounds EC50, 103-Asn.
From the text: as §1, §2

The structures appear in SMILES notation. ≈ marks a conversion by molar mass, not a printed value.

With `Cn1ccc(C(=S)Nc2ccc(Cl)c(C=NOC(C)(C)C)c2)c1` [Compound 11], the EC50 is > 2 µg/mL in the data set with HIV-1/188-Leu; 0.1 µg/mL (≈ 0.286 µM) in the data set with HIV-1/106-Ala; 0.13 µg/mL (≈ 0.372 µM) with HIV-1/100-Ile; 0.13 µg/mL (≈ 0.372 µM) in the data set with HIV-1/Lys-138; 0.029 µg/mL (≈ 0.0829 µM) in the data set on HIV-1(IIIB); 0.045 µg/mL (≈ 0.129 µM) in the data set on HIV-1/181-Cys. Besides, in the data set on HIV-1/103-Asn, the EC50 worked out at 0.17 µg/mL (≈ 0.486 µM). This compound also registered a CC50 in the data set “in vitro” of 13 µg/mL (≈ 37.2 µM).

With `CC1=C(C(=S)Nc2ccc(Cl)c(C=NOC(C)(C)C)c2)CCCO1` [Compound 5], the EC50 with HIV-1/188-Leu was > 2 µg/mL; with HIV-1/106-Ala, 0.025 µg/mL (≈ 0.0681 µM); in the data set with HIV-1/100-Ile it was 0.055 µg/mL (≈ 0.15 µM); with HIV-1/Lys-138, 0.04 µg/mL (≈ 0.109 µM); in the data set on HIV-1(IIIB), 0.013 µg/mL (≈ 0.0354 µM); in the data set with HIV-1/181-Cys, 0.025 µg/mL (≈ 0.0681 µM). Besides, the EC50 with HIV-1/103-Asn worked out at 0.08 µg/mL (≈ 0.218 µM). The CC50 in the data set “in vitro” stood at 10 µg/mL (≈ 27.3 µM).

With `CON=Cc1cc(NC(=S)c2ccoc2C)ccc1OC` [Compound 4], the EC50 stood at 0.93 µg/mL (≈ 3.06 µM) with HIV-1/188-Leu; 0.22 µg/mL (≈ 0.723 µM) in the data set on HIV-1/106-Ala; 0.22 µg/mL (≈ 0.723 µM) with HIV-1/100-Ile; 0.039 µg/mL (≈ 0.128 µM) with HIV-1/Lys-138; 0.007 µg/mL (≈ 0.023 µM) in the data set with HIV-1(IIIB); 0.59 µg/mL (≈ 1.94 µM) in the data set on HIV-1/181-Cys. In addition, in the data set with HIV-1/103-Asn, the EC50 was 0.4 µg/mL (≈ 1.31 µM). The CC50 in “in vitro” was > 100 µg/mL.

On to `Cc1sccc1C(=O)Nc1ccc(Cl)c(C(=O)OC(C(C)C)C(C)C)c1` [Compound 32], for which the EC50 is > 2 µg/mL in the data set with HIV-1/188-Leu; ≥ 2 µg/mL in the data set on HIV-1/106-Ala; ≥ 2 µg/mL with HIV-1/100-Ile; ≥ 2 µg/mL in the data set on HIV-1/Lys-138; 0.16 µg/mL (≈ 0.406 µM) with HIV-1(IIIB); 0.95 µg/mL (≈ 2.41 µM) in the data set with HIV-1/181-Cys. For the same compound, the EC50 in the data set with HIV-1/103-Asn was ≥ 2 µg/mL. In addition, the CC50 in “in vitro” was determined as 4.1 µg/mL (≈ 10.4 µM).

For the compound `CC=CCOc1cc(NC(=S)c2ccsc2C)ccc1Cl` [Compound 1], the EC50 with HIV-1/188-Leu worked out at 0.65 µg/mL (≈ 1.92 µM); in the data set on HIV-1/106-Ala it was 0.023 µg/mL (≈ 0.0681 µM); in the data set with HIV-1/100-Ile it was 0.048 µg/mL (≈ 0.142 µM); in the data set on HIV-1/Lys-138, 0.018 µg/mL (≈ 0.0533 µM); in the data set with HIV-1(IIIB), 0.0055 µg/mL (≈ 0.0163 µM); with HIV-1/181-Cys it was 0.03 µg/mL (≈ 0.0888 µM). In addition, the EC50 in the data set with HIV-1/103-Asn amounted to 0.048 µg/mL (≈ 0.142 µM). This compound also returned a CC50 in the data set “in vitro” of 5.9 µg/mL (≈ 17.5 µM).

Turning to `Cc1sccc1C(=S)Nc1ccc(Cl)c(C(=O)OC(C(C)C)C(C)C)c1` [Compound 21], the EC50 with HIV-1/188-Leu is > 2 µg/mL; with HIV-1/106-Ala it was 0.23 µg/mL (≈ 0.561 µM); in the data set on HIV-1/100-Ile it was 0.3 µg/mL (≈ 0.732 µM); with HIV-1/Lys-138 it was 0.11 µg/mL (≈ 0.268 µM); in the data set on HIV-1(IIIB) it was 0.008 µg/mL (≈ 0.0195 µM); with HIV-1/181-Cys, 0.17 µg/mL (≈ 0.415 µM). The EC50 with HIV-1/103-Asn came to 0.61 µg/mL (≈ 1.49 µM). This compound also came in with a CC50 in the data set “in vitro” of 6 µg/mL (≈ 14.6 µM).

Turning to `Cc1occc1C(=S)Nc1ccc(Cl)c(OC2CCCCC2)c1` [Compound 26], the EC50 with HIV-1/188-Leu was > 2 µg/mL; in the data set with HIV-1/106-Ala, 0.09 µg/mL (≈ 0.257 µM); in the data set on HIV-1/100-Ile, 0.33 µg/mL (≈ 0.943 µM); with HIV-1/Lys-138, 0.5 µg/mL (≈ 1.43 µM); with HIV-1(IIIB), 0.033 µg/mL (≈ 0.0943 µM); in the data set with HIV-1/181-Cys it was ≥ 2 µg/mL. Besides, the EC50 in the data set with HIV-1/103-Asn was 0.33 µg/mL (≈ 0.943 µM). Moreover, in the data set “in vitro”, the CC50 came out at 5.3 µg/mL (≈ 15.1 µM).

For `Cc1sccc1C(=S)Nc1ccc(Cl)c(OCC(C)(C)C)c1` [Compound 29], the EC50 with HIV-1/188-Leu is > 2 µg/mL; with HIV-1/106-Ala it was 0.5 µg/mL (≈ 1.41 µM); in the data set with HIV-1/100-Ile, 0.5 µg/mL (≈ 1.41 µM); in the data set on HIV-1/Lys-138, 0.05 µg/mL (≈ 0.141 µM); with HIV-1(IIIB) it was 0.14 µg/mL (≈ 0.396 µM); with HIV-1/181-Cys it was 0.55 µg/mL (≈ 1.55 µM). Also, the EC50 in the data set on HIV-1/103-Asn turned out to be 0.43 µg/mL (≈ 1.21 µM). This compound yielded a CC50 in “in vitro” of 6.2 µg/mL (≈ 17.5 µM).

In the case of `Cc1sccc1C(=O)Nc1ccc(Cl)c(OCCC(C)C)c1` [Compound 33], the EC50 is > 2 µg/mL in the data set on HIV-1/188-Leu; 0.65 µg/mL (≈ 1.92 µM) in the data set on HIV-1/106-Ala; 0.95 µg/mL (≈ 2.81 µM) in the data set on HIV-1/100-Ile; 0.62 µg/mL (≈ 1.84 µM) with HIV-1/Lys-138; 0.063 µg/mL (≈ 0.186 µM) with HIV-1(IIIB); 1.07 µg/mL (≈ 3.17 µM) in the data set with HIV-1/181-Cys. In the data set on HIV-1/103-Asn, the EC50 amounted to 1 µg/mL (≈ 2.96 µM). In the data set “in vitro”, this compound displayed a half-maximal cytotoxic concentration (CC50) of 7 µg/mL (≈ 20.7 µM).
